Results: ChEMBL document CHEMBL1201862, “PubChem BioAssay data set” (2004)
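How tested: cells in 96-well plates exposed to compound for 48 hours at five concentrations. GI50 is the concentration that inhibits growth by half.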 Calls of active or inactive are those of the source. No stated cut-off is given here; in the data, active = GI50 up to about 1.1 µM and inactive = higher.

Columns and labels:
Experiment in all cases: NCI-60 cell line screen, 48 h
[1] = system: MDA-MB-231
[2] = system: U-251
[3] = system: HL-60
[4] = system: MCF7
[5] = system: MDA-MB-435
[6] = system: HOP-92
[7] = system: NCI-H522
[8] = system: SNB-19
[9] = system: A549
[10] = system: PC-3
[11] = system: NCI-H23
[12] = system: CCRF-CEM
[13] = system: NCI-H460
[14] = system: 786-0
[15] = system: A498
[16] = system: NCI/ADR-RES
[17] = system: SK-MEL-2
[18] = system: RPMI-8226
[19] = system: IGROV-1
[20] = system: UO-31

| Compound | GI50 [1] | GI50 [2] | GI50 [3] | GI50 [4] | GI50 [5] | GI50 [6] | GI50 [7] | GI50 [8] | GI50 [9] | GI50 [10] | GI50 [11] | GI50 [12] | GI50 [13] | GI50 [14] | GI50 [15] | GI50 [16] | GI50 [17] | GI50 [18] | GI50 [19] | GI50 [20] |
| --- | --- | --- | --- | --- | --- | --- | --- | --- | --- | --- | --- | --- | --- | --- | --- | --- | --- | --- | --- | --- |
| N/N=C(/CC(O)(C(F)(F)F)C(F)(F)F)c1ccccc1 | > 10 µM (inactive) | > 10 µM (inactive) | > 10 µM (inactive) | > 10 µM (inactive) | > 10 µM (inactive) | > 10 µM (inactive) | > 10 µM (inactive) | > 10 µM (inactive) | > 10 µM (inactive) | > 10 µM (inactive) | > 10 µM (inactive) | > 10 µM (inactive) | > 10 µM (inactive) | > 10 µM (inactive) | > 10 µM (inactive) | > 10 µM (inactive) | > 10 µM (inactive) | > 10 µM (inactive) | > 10 µM (inactive) | – |
| C=CCOC(OCC=C)/C(Br)=C/C | > 100 µM (inactive) | 59.2 µM (inactive) | 41 µM (inactive) | 28.3 µM (inactive) | 26.9 µM (inactive) | 56.5 µM (inactive) | – | > 100 µM (inactive) | > 100 µM (inactive) | 93.1 µM (inactive) | 31 µM (inactive) | 10.3 µM (inactive) | 67.3 µM (inactive) | 11.2 µM (inactive) | > 100 µM (inactive) | 31 µM (inactive) | 68.2 µM (inactive) | > 100 µM (inactive) | – | 34.9 µM (inactive) |
| Clc1cccc(Cl)c1/C=N/C12CC3CC(CC(C3)C1)C2 | > 10 µM (inactive) | > 10 µM (inactive) | > 10 µM (inactive) | > 10 µM (inactive) | > 10 µM (inactive) | > 10 µM (inactive) | > 10 µM (inactive) | > 10 µM (inactive) | > 10 µM (inactive) | > 10 µM (inactive) | > 10 µM (inactive) | > 10 µM (inactive) | > 10 µM (inactive) | > 10 µM (inactive) | > 10 µM (inactive) | > 10 µM (inactive) | > 10 µM (inactive) | > 10 µM (inactive) | > 10 µM (inactive) | – |
| COc1cc2c(cc1O)C(c1cc(O)c(O)c(OC)c1)C(O)(C(=O)O)C(CO)C2O (configuration not stated) | 40.8 µM (inactive) | > 100 µM (inactive) | – | 20.9 µM (inactive) | 17.6 µM (inactive) | > 100 µM (inactive) | > 100 µM (inactive) | > 100 µM (inactive) | > 100 µM (inactive) | > 100 µM (inactive) | > 100 µM (inactive) | 2.62 µM (inactive) | > 100 µM (inactive) | 16.1 µM (inactive) | > 100 µM (inactive) | > 100 µM (inactive) | > 100 µM (inactive) | > 100 µM (inactive) | > 100 µM (inactive) | > 100 µM (inactive) |
| C1=C2SSC3=CC=C(SSc4ccc(s4)SSC4=CC=C(SSC(=C1)S2)S4)S3 | > 100 µM (inactive) | > 100 µM (inactive) | – | > 100 µM (inactive) | > 100 µM (inactive) | > 100 µM (inactive) | > 100 µM (inactive) | > 100 µM (inactive) | > 100 µM (inactive) | > 100 µM (inactive) | > 100 µM (inactive) | > 100 µM (inactive) | > 100 µM (inactive) | > 100 µM (inactive) | > 100 µM (inactive) | > 100 µM (inactive) | > 100 µM (inactive) | > 100 µM (inactive) | > 100 µM (inactive) | > 100 µM (inactive) |
| O=C(/C=C/c1ccc(O)c(O)c1)OCc1ccccc1 [BENZYL CAFFEATE] | 21.6 µM (inactive) | 14.5 µM (inactive) | 0.938 µM (active) | 7.8 µM (inactive) | 6.27 µM (inactive) | 16.2 µM (inactive) | 0.809 µM (active) | 27.6 µM (inactive) | 19.2 µM (inactive) | 18 µM (inactive) | 14.8 µM (inactive) | – | 12.8 µM (inactive) | 14.7 µM (inactive) | 20.5 µM (inactive) | 15.8 µM (inactive) | 13.4 µM (inactive) | 10.6 µM (inactive) | 3.38 µM (inactive) | 13.7 µM (inactive) |
| COc1ccc(C[C@@H](CO)NC2=C(C#N)CCC2)cc1 | 15.1 µM (inactive) | > 100 µM (inactive) | 11 µM (inactive) | 26.9 µM (inactive) | 48 µM (inactive) | 43.5 µM (inactive) | – | > 100 µM (inactive) | 86.7 µM (inactive) | 32.3 µM (inactive) | 52.4 µM (inactive) | 42.6 µM (inactive) | 64.7 µM (inactive) | 64.1 µM (inactive) | 31.9 µM (inactive) | 28.4 µM (inactive) | > 100 µM (inactive) | 18.1 µM (inactive) | – | 46 µM (inactive) |
| CS(=N)(=O)CCC(N)P(=O)(O)O (configuration not stated) | > 100 µM (inactive) | > 100 µM (inactive) | > 100 µM (inactive) | > 100 µM (inactive) | > 100 µM (inactive) | > 100 µM (inactive) | > 100 µM (inactive) | > 100 µM (inactive) | > 100 µM (inactive) | > 100 µM (inactive) | > 100 µM (inactive) | – | > 100 µM (inactive) | > 100 µM (inactive) | > 100 µM (inactive) | > 100 µM (inactive) | > 100 µM (inactive) | > 100 µM (inactive) | > 100 µM (inactive) | > 100 µM (inactive) |
| COC(=O)C(C)(NC(=O)C(CC(=O)OC(C)(C)C)NC(=O)OC(C)(C)C)c1ccccc1 (configuration not stated) | > 100 µM (inactive) | > 100 µM (inactive) | 81.7 µM (inactive) | 62.1 µM (inactive) | > 100 µM (inactive) | 63 µM (inactive) | > 100 µM (inactive) | > 100 µM (inactive) | > 100 µM (inactive) | > 100 µM (inactive) | > 100 µM (inactive) | > 100 µM (inactive) | 85.7 µM (inactive) | > 100 µM (inactive) | 54.3 µM (inactive) | 55.1 µM (inactive) | – | 72.8 µM (inactive) | > 100 µM (inactive) | 26.5 µM (inactive) |
| ClCCN1CCC2(CC1)SSC1(CCN(CCCl)CC1)S2 | 57.5 µM (inactive) | 42.1 µM (inactive) | 30.7 µM (inactive) | 11.6 µM (inactive) | 73.6 µM (inactive) | 1.79 µM (inactive) | – | 48 µM (inactive) | 89.9 µM (inactive) | 30.1 µM (inactive) | 49.7 µM (inactive) | 15 µM (inactive) | 29.3 µM (inactive) | 36.7 µM (inactive) | 63.4 µM (inactive) | 49.7 µM (inactive) | > 100 µM (inactive) | 21.4 µM (inactive) | 74 µM (inactive) | 65.6 µM (inactive) |
| Nn1c(SCC(=O)O)nc2ccccc2c1=O | > 100 µM (inactive) | > 100 µM (inactive) | – | > 100 µM (inactive) | > 100 µM (inactive) | > 100 µM (inactive) | > 100 µM (inactive) | > 100 µM (inactive) | > 100 µM (inactive) | > 100 µM (inactive) | > 100 µM (inactive) | > 100 µM (inactive) | > 100 µM (inactive) | > 100 µM (inactive) | > 100 µM (inactive) | > 100 µM (inactive) | > 100 µM (inactive) | > 100 µM (inactive) | > 100 µM (inactive) | > 100 µM (inactive) |
